This series can be described thus: Gravimetric vapor sorption (GVS) analysis / hygroscopicity. In kind it is physicochemical. The following applies: GVS at 25° C., FIG. 4. As to the method: Gravimetric vapor sorption analysis was performed with SPS 100n (ProUmid GmbH & Co. KG). An appropriate amount of the sample was placed into a tared aluminum pan without any pre-treatment. The analysis was run at a temperature of 25° C. with the following humidity program: 40%-0%-95%-40% in steps of 5% with maximum equilibration time of 24 h at each step. Analyzing software was ProUmid Excel template #SPS_4_3_23_E2010_drycorr.xltm.

Experimental findings from patent US20260272902A1, “C[…] ACID SALT FORM OF A CCR6 ANTAGONIST” (Idorsia Pharmaceuticals Ltd, priority 2022, published 2026) are described below.

Take “2-(3-{5-[(R)-(1,3-dimethyl-azetidin-3-yl)-hydroxy-(4-isopropyl-phenyl)-methyl]-pyridin-3-yl}-[1,2,4]oxadiazol-5-yl)-propan-2-ol adipic acid salt”: the “Hygroscopicity classification acc. to Eur. Phar.” value was “is classified as non-hygroscopic acc. to Eur. Phar”. The “Hygroscopicity: water uptake” value (between 40% and 80% RH) is “Less than 0.1% water uptake between 40% and 80% RH. Sample”.
